Measurements published in patent US12685740B2, “Compositions for the elimination of senescent cells” (Universität für Bodenkultur Wien, priority 2018, dated 2026).
Read-outs that look alike come from different tables or passages of the source.

Tests used:
cyclooxygenase = conditions: Wang et al. 2000; read-out: IC50 of inhibiting cyclooxygenase activity; cited from earlier work
COX-1 = COX-1 (Homo sapiens, UniProt P23219); conditions: cited from earlier work
[1] = system: Doxorubicin-induced premature senescent HLF102; experiment: Alamar blue viability assay, doxorubicin-induced SIPS vs quiescent HLF102 (FIG. 12); type: cell-based, human
Experimental: (§1) Cells were seeded at a cell density of 2,800 cells/cm^2 one day prior to the treatment. The cells were treated nine times over a period of 11 days with 60-80 μM H2O2 supplemented to the media for one hour followed by a media change. Alternatively, depending on cell type cells were seeded at a cell density of 3,500-7,000 cells/cm^2 one day prior to the treatment and SIPS was induced with 100-200 nM doxorubicin (D1515, Sigma-Aldrich) supplemented to the medium for 6 days. Induction of senescence was verified by SA-β-gal staining, p21 expression, and absence of BrdU incorporation. AnnexinV/PI staining was performed to assure that the treatment was non-lethal and SIPS HDFs were cultured and monitored for over 50 days to assure that the induced growth arrest was permanent (Terlecki-Zaniewicz et al. 2018).
(§2) Alamar blue (DAL1100, Thermo Fisher Scientific) assay was performed according to the manufacturer's instructions. Cells were treated with the respective substances for 9 days with a media change on day 0, 3 and 6. The control was treated with the respective concentration of the solvent (DMSO).

[2] = system: Doxorubicin-induced premature senescent RPTEC1; experiment: Alamar blue viability assay, doxorubicin-induced SIPS vs quiescent RPTEC1 (FIG. 13); type: cell-based, human
Experimental: as §1, §2

[3] = system: Doxorubicin-induced premature senescent HDF76, HDF161, HDF164; experiment: Alamar blue viability assay, SIPS vs quiescent HDF, combined data of three donors (FIG. 9, 11); type: cell-based, human
Experimental: as §1, §2
(§3) Premature senescence was induced in adult and foreskin HDFs with doxorubicin, which was supplemented to the growth media for 6 days. Treatment with senolytic substances started 8 days after completion of the SIPS treatment to allow for cells to enter senescence. Quiescent cells were used as control. Growth media was supplemented with senolytic substances for 9 days with media changes every 3 days. All samples, including the control, contained the same concentration of solvent (DMSO). Subsequently, the viability was assessed using an alamar blue assay (Thermo Fisher Scientific).

[4] = system: doxorubicin-induced premature senescent HUVECs; experiment: Alamar blue viability assay, doxorubicin-induced SIPS vs quiescent HUVECs (FIG. 5); type: cell-based, human; conditions: single treatment, 9 days, SIPS vs quiescent (Q) HUVECs
Experimental: as §1, §2
as §3, with “HUVECs” for “adult and foreskin HDFs”, “doxorubicin (Sigma-Aldrich),” for “doxorubicin,”, “Scientific) (FIG. 5).” for “Scientific).”

[5] = system: Doxorubicin-induced premature senescent HDF76, HDF85, HDF161; experiment: Rescue of senolytic effect by manipulating cPLA2 activity, viability after 72 hours (FIG. 18); type: cell-based
Experimental: Doxorubicin-induced premature senescent HDF76, HDF85, HDF161 (SIPS) and quiescent control cells (Q) were either treated for 72 hours with the combination of 1 μM ACSL4 inhibitor Triacsin C (TrC) and 1 μM ALOXS inhibitor MK886 alone or in addition with either 2.5 μM A23187 (cPLA2 activator) or 12.5 μM ASB14780 (cPLA2 inhibitor).
This was also the case, when the enzymatic activity of the cytosolic phospholipase A2 was reduced by the small molecule inhibitor ASB14780 (Sigma Aldrich, SML1913).

[6] = system: Doxorubicin-induced premature senescent HDF161; experiment: Alamar blue viability assay, doxorubicin-induced SIPS vs quiescent HDF161 (FIG. 6); type: cell-based, human; conditions: for EC50: read-out: EC50 for senescent cells
Experimental: as §1, §2, §3

[7] = system: Doxorubicin-induced premature senescent HDF164; experiment: Alamar blue viability assay, doxorubicin-induced SIPS vs quiescent HDF164 (FIG. 7, 14); type: cell-based, human; conditions: for EC50: read-out: EC50 for senescent cells
Experimental: as §1, §2, §3
as §3, with “adult” for “adult and foreskin”, “allow” for “allow for”

[8] = system: H2O2-induced premature senescent human dermal fibroblasts; experiment: Alamar blue viability assay, H2O2-induced premature senescent (SIPS) vs quiescent HDFs (FIG. 4); type: cell-based; conditions: single treatment, 9 days, SIPS vs quiescent (Q) HDFs
Experimental: as §1, with “([…],” for “(D1515,”, “([…]” for “(Terlecki-Zaniewicz”, “2018). Alamar blue (DAL1100, Thermo Fisher Scientific) assay was performed according to the manufacturer's instructions. […] The control was treated with the respective concentration of the solvent (DMSO). Premature senescence was induced in HDF with chronic oxidative stress treatment (9 doses of H2O2 treatment over the period of 11 days). Quiescent cells were used as control. […] Subsequently, the viability was assessed using an alamar blue assay (Thermo Fisher Scientific).” for “2018).”

[9] = system: intracellular levels of AA of HDF161; experiment: Quantification of intracellular arachidonic acid by ELISA (FIG. 17b); type: cell-based, human; conditions: 10 μM MK886 together with 100 μM Diclofenac for 6 hrs, vs solvent (1% DMSO)
Experimental: The cells were harvested by trypsinization, centrifuged at 1000 g and 4° C. for 5 min and washed three times with cold PBS. The Cells were counted using a Vi-CELL XR (Beckman Coulter) automated cell counter and the cell pellets were resuspended in cold PBS to obtain a cell suspension with 2000-5000 cells/μl. Subsequently the cells were lysed by 30 cycles of sonication (30 s on, 30 s off) in a Bioruptor (Diagenode). Cell debris was removed by 10 min centrifugation at 1500 g and 4° C. and the supernatant was analyzed with an ELISA assay (Novus Biologicals; NBP2-66372) according to the manufacturer's instructions.
In order to verify, whether novel senolytics can be identified in an efficient screen measuring the intracellular levels of AA, an ELISA test (Novus Biologicals; NBP2-66372) was used according to the manufacturer's instructions to first, confirm that novel senolytics identified in the examples above indeed lead to an accumulation of intracellular AA, and second, to screen for compounds, which cause an increase of intracellular levels of AA in senescent HDFs.

[10] = system: Doxorubicin-induced premature senescent fHDF166; experiment: Alamar blue viability assay, doxorubicin-induced SIPS vs quiescent fHDF166 (FIG. 8, 15); type: cell-based, human; conditions: for EC50: read-out: EC50 for senescent cells
Experimental: as §1, §2, §3
as §3, with “In order to test this, premature” for “Premature”, “in” for “in adult and”

[11] = single treatment (DQ: 15 μM Quercetin with increasing Dasatinib)
[12] = MK886 combined with 50 μM Diclofenac
[13] = increasing MK886 combined with 50 μM Diclofenac
[14] = increasing MK886 combined with 0.4 mM ASA
[15] = 12.5 μM ASB14780 added to 1 μM TrC and 1 μM MK886, 72 hours

Sequence of COX-1 (P23219 24-599): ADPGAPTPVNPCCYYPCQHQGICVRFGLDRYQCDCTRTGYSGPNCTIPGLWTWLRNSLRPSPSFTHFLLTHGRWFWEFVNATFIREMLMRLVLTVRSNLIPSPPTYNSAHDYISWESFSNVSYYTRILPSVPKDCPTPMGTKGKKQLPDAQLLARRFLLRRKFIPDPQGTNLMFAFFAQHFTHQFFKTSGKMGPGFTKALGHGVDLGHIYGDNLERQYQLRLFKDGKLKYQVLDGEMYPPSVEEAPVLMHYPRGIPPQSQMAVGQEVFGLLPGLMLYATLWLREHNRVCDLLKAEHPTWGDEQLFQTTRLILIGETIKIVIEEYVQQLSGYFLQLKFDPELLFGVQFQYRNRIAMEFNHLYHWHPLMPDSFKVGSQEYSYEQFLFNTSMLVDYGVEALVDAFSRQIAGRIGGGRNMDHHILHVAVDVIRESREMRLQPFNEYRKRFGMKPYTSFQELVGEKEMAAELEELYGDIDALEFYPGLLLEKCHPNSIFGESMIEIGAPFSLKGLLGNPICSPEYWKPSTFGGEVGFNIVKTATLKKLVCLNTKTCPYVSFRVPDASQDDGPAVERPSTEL

In the case of `O=c1c(O)c(-c2ccc(O)c(O)c2)oc2cc(O)cc(O)c12` [Quercetin], the IC50 (cyclooxygenase) is given as ≥ 100 µM.
For `CC(C)=CCC[C@]1(C)[C@@H](CC=C(C)C)C[C@@]2(CC=C(C)C)C(=O)[C@]1(C(=O)C(C)C)C(=O)C(CC=C(C)C)=C2O` [hyperforin], the “COX-1 inhibition relative to aspirin” value (COX-1) is given as 3-18 times.
For `CCC/C=C/C/C=C/C=C/C=N/NN=O` [TrC, Triacsin C], the “EC50 fold change between senescent and quiescent cells” value ([1]; TrC as single treatment) was 9.19 fold, the “EC50 fold change between senescent and quiescent cells” value ([1]; increasing TrC combined with 1 μM MK886 and 50 μM Diclofenac) was 13.75 fold and the “EC50 fold change between senescent and quiescent cells” value ([2]; single treatment) was “around 350 fold”. The senolytic effect [3, 11] was “significant senolytic effect”.
In the case of `CC1(C)Cc2c(-c3ccccc3)c(-c3ccc(Cl)cc3)c(CC(=O)O)n2C1` [Licofelone], the senolytic effect [4] is reported as “significant senolytic effect”.
For `CNc1ccc2oc(C[C@H]3O[C@@]4(CC[C@H]3C)O[C@H]([C@H](C)C(=O)c3ccc[nH]3)[C@H](C)C[C@H]4C)nc2c1C(=O)O` [A23187], the “effect on the senolytic effect of 1 μM TrC and 1 μM MK886” value ([5]; 2.5 μM A23187 added, 72 hours) was “abolishing the senolytic effect”.
With `CC(C)c1ccc2c(c1)c(SC(C)(C)C)c(CC(C)(C)C(=O)O)n2Cc1ccc(Cl)cc1` [MK886] the “fold change between the EC50 of senescent versus quiescent cells” value (“fold change between the EC50” below) ([6]; MK886 as single treatment) was 1.58 fold, the EC50 ([6]; MK886 as single treatment) was 26.4 µM and the “fold change between the EC50” value ([6]; MK886 combined with 2 μM Celecoxib) was 2.55 fold. For the same molecule, the “fold change between the EC50” value [6, 12] was 2.53 fold, the “fold change between the EC50” value ([6]; MK886 combined with 0.4 mM ASA) was 1.95 fold and the EC50 ([6]; increasing MK886 combined with 2 μM Celecoxib) was 17 µM. For the same molecule, the EC50 [6, 13] was 9 µM, the EC50 [6, 14] was 18.8 µM and the “fold change between the EC50” value ([7]; MK886 as single treatment) was 1.31 fold. The EC50 ([7]; MK886 as single treatment) was 34.7 µM, the “fold change between the EC50” value [7, 12] was 1.61 fold and the “fold change between the EC50” value ([7]; MK886 combined with 100 μM Diclofenac) was 1.88 fold. The “fold change between the EC50” value ([7]; MK886 combined with 200 μM Diclofenac) was 1.64 fold, the “fold change between the EC50” value ([7]; MK886 combined with 0.4 mM ASA) was 1.46 fold and the “fold change between the EC50” value ([7]; MK886 combined with 0.4 mM ASA and 5 μM Oligomycin A) was 4.51 fold. The EC50 [7, 13] was 17.3 µM, the EC50 ([7]; increasing MK886 combined with 100 μM Diclofenac) was 11.2 µM and the EC50 ([7]; increasing MK886 combined with 200 μM Diclofenac) was 8.39 µM. The EC50 ([7]; increasing MK886 combined with 0.4 mM ASA and 5 μM Oligomycin A) was 9.9 µM, the EC50 [7, 14] was 30.4 µM and the senolytic effect [8] was “significant senolytic effect”. The “intracellular AA levels” value [9] was “increased”, the “EC50 fold change between senescent and quiescent cells” value ([2]; increasing MK886 combined with 0.1 μM TrC and 25 μM Diclofenac) was “around 700 fold” and the “EC50 fold change between senescent and quiescent cells” value ([2]; increasing MK886 combined with 25 μM Diclofenac) was 5.11 fold. For the same molecule, the “EC50 fold change between senescent and quiescent cells” value ([2]; single treatment) was 2.66 fold, the senolytic effect ([3]; increasing MK886 combined with 0.5 μM TrC (dual inhibition of ACSL4 and ALOX5)) was “significant senolytic effect” and the senolytic effect [3, 11] was “not significant”. The “fold change between the EC50” value ([10]; MK886 as single treatment) was 1.49 fold, the EC50 ([10]; MK886 as single treatment) was 34 µM and the “fold change between the EC50” value [10, 12] was 2.52 fold. The “fold change between the EC50” value ([10]; MK886 combined with 0.4 mM ASA) was 1.51 fold, the “fold change between the EC50” value ([10]; MK886 combined with 0.4 mM ASA and 2 μM CsA) was 2.81 fold and the EC50 [10, 13] was 12.4 µM. The EC50 ([10]; increasing MK886 combined with 0.4 mM ASA and 2 μM CsA) was 14.9 µM and the EC50 [10, 14] was 29.6 µM.
For `CC(=O)Oc1ccccc1C(=O)O` [ASA, acetylsalicylic acid], the senolytic effect [4] was “significant senolytic effect” and the senolytic effect [8] was “significant senolytic effect”.
In the case of `CC1(C)CCC(c2ccc(Cl)cc2)=C(CN2CCN(c3ccc(C(=O)NS(=O)(=O)c4ccc(N[C@H](CCN5CCOCC5)CSc5ccccc5)c(S(=O)(=O)C(F)(F)F)c4)cc3)CC2)C1` [Navitoclax], the senolytic effect [4] is reported as “significant senolytic effect” and the senolytic effect [3, 11] is reported as “no senolytic effect”.
With `O=C(O)Cc1ccccc1Nc1c(Cl)cccc1Cl` [Diclofenac] the “EC50 fold change between senescent and quiescent cells” value ([2]; single treatment) was 3.02 fold.
With `NC(CO)(CO)CO.O=C(O)CCc1ccc2c(c1)c(CCc1ccccc1)cn2-c1ccc(Oc2ccccc2)cc1` [ASB14780] the “effect on the cytotoxic effect of TrC and MK886 on senescent cells” value [5, 15] was “reduced the cytotoxic effect” and the “viability of quiescent cells” value [5, 15] was “only affected to a minor extent”.
